Results reported in PMC3034772 (Pharmaceutical research, 2010).
Several values for one entry are separate records, joined by “and”; a condition that tells them apart may be missing. Equal entries are not always repeated. Where two headings read alike, the source gives them in different places.

What was measured:
[1] = Charge class Q, dominant calculated charge state at pH 7.4; type: physicochemical
[2] = cited from earlier work
[3] = in vivo
[4] = PAMPA; for Pm^7.4: pH 7.4
[5] = cited from earlier work; remark: listed apart in the source
[6] = In combo PAMPA-BBB model, calculated log Po in situ
[7] = in vivo; cited from earlier work
[8] = In situ brain perfusion permeability; settings: from literature PS
[9] = cited from earlier work; remark: listed apart in the source
[10] = mouse, in vivo
physchem [11] = assay: physchem
Double-Sink PAMPA = settings: intrinsic permeability, Type DS, Double-Sink PAMPA data scaled to the 3 μL level
[12] = In situ brain perfusion, individual literature values; settings: from literature PS
physchem [13] = settings: pKa
PAMPA-BBB Type II = settings: 3 μL lipid-volume coated filters
[14] = PAMPA
[15] = dominant calculated concentration fraction of the drug in a charge state

| SMILES | Q (charge class) [1, 15] | Q (charge class) [1] | log Po^in situ (obs) [3] | log PABL [4] | log Po [4] | log Ppara [4] | Pm^7.4 [4] | PS ([5]; in vivo) | log PS ([5]; in vivo) | obs–calc (log Po^in situ) [6] | obs–calc (log Po^in situ) ([6]; efflux inhibition mdr1a(−/−)) | further results |
| --- | --- | --- | --- | --- | --- | --- | --- | --- | --- | --- | --- | --- |
| C=C[C@H]1C[N@@]2CC[C@H]1C[C@@H]2[C@@H](O)c1ccnc2ccc(OC)cc12 [Quinidine] | + |  |  |  |  |  |  |  |  |  |  | PS ([2]; rat, in vivo): 4 10^−4 mLg^−1s^−1 |
| COc1ccc2c3c1O[C@H]1[C@@H](O)C=C[C@H]4[C@@H](C2)N(C)CC[C@@]341 [Codeine] |  | + | −3.80 | −4.69 | −3.68 | −7.16 | 27 | 33 10^−4 mLg^−1s^−1 | −2.48 | −0.2 |  | log BB (brain-to-plasma total concentration ratio) [7]: 0.55 |
| CC[C@]1(O)C[C@H]2CN(CCc3c([nH]c4ccccc34)[C@@](C(=O)OC)(c3cc4c(cc3OC)N(C=O)[C@H]3[C@@](O)(C(=O)OC)[C@H](OC(C)=O)[C@]5(CC)C=CCN6CC[C@]43[C@@H]65)C2)C1 [Vincristine] | 0 |  |  | −4.62 | −4.54 | −7.67 | 14 |  |  |  | −0.1 | log Po^in situ (obs) ([8]; efflux inhibition mrp1(−/−)): −5.95; PS ([9]; efflux inhibition mrp1(−/−)): 1 10^−4 mLg^−1s^−1; log PS ([9]; efflux inhibition mrp1(−/−)): −4.25; obs–calc (log Po^in situ) ([6]; efflux inhibition mrp1(−/−)): −0.5 |
| COc1ccc2c3c1O[C@H]1C[C@@H](O)C=C[C@@]31CCN(C)C2 [Galanthamine] |  | + | −3.24 | −4.89 | −3.41 | −7.73 | 22 | 33 10^−4 mLg^−1s^−1 | −2.48 | 0.2 |  | PS ([9]; mouse, in vivo): 35 10^−4 mLg^−1s^−1; log PS ([9]; mouse, in vivo): −2.46; log Po^in situ (obs) [10]: −3.21; pKa (physchem [11]): 8.62; log BB (brain-to-plasma total concentration ratio) [7]: 0.00 |
| O=C(O)c1ccccc1O [Salicylic Acid] | − |  |  |  |  |  |  |  |  |  |  | log Po (Double-Sink PAMPA): −3.34; obs–calc (log Po^in situ) ([6]; no efflux inhibition): 0.9 |
| CCCC(CCC)C(=O)O [Valproic Acid] | − |  |  |  |  |  |  | 93 10^−4 mLg^−1s^−1 | −2.03 |  | −0.2 | log Po (Double-Sink PAMPA): −3.77; log Po^in situ (obs) ([12]; efflux inhibition column: Kd): −2.54; obs–calc (log Po^in situ) ([6]; efflux inhibition column: Kd): −0.2 |
| O=c1c(O)c(-c2ccc(O)c(O)c2)oc2cc(O)cc(O)c12 [Quercetin] | 0 |  |  | −4.92 | −4.40 | −6.87 | 5 |  |  |  |  | log Po^in situ (obs) ([12]; efflux inhibition GF120918): −4.03; PS ([5]; efflux inhibition GF120918): 22 10^−4 mLg^−1s^−1; log PS ([5]; efflux inhibition GF120918): −2.65; obs–calc (log Po^in situ) ([6]; difference observed minus calculated, external set, no efflux inhibition): −0.4; obs–calc (log Po^in situ) ([6]; efflux inhibition GF120918): 0.7; obs–calc (log Po^in situ) ([6]; efflux inhibition: PSC833): −0.3; pKa (physchem [13]): 9.4; PS ([2]; efflux inhibition: PSC833): 2 10^−4 mLg^−1s^−1; log PS ([2]; efflux inhibition: PSC833): −3.67 |
| COc1ccc(C(CN(C)C)C2(O)CCCCC2)cc1 (stereo not drawn) [Venlafaxine] |  | + | −1.66 |  |  |  |  | 104 10^−4 mLg^−1s^−1 | −1.98 | 0.6 |  | log Po (PAMPA-BBB Type II; PAMPA-BBB intrinsic permeability, Type II and I/II): −2.17; log PABL (PAMPA-BBB Type II; aqueous boundary layer permeability, Type II and I/II): −3.22; Pm^7.4 (PAMPA-BBB Type II; membrane permeability at pH 7.4, Type II and I/II): 32 |
| COc1cccc2c1C(=O)c1c(O)c3c(c(O)c1C2=O)C[C@@](O)(C(=O)CO)C[C@@H]3O[C@H]1C[C@H](N)[C@H](O)[C@H](C)O1 [Doxorubicin] | + |  |  | −4.61 | −4.23 | −12 | 0.3 |  |  |  | 1.7 | log Po^in situ (obs) ([12]; efflux inhibition verapamil): −3.14; log Po^in situ (obs) ([8]; efflux inhibition mrp1(−/−)): −3.35; PS ([9]; efflux inhibition mrp1(−/−)): 2 10^−4 mLg^−1s^−1; log PS ([9]; efflux inhibition mrp1(−/−)): −3.66; PS ([5]; efflux inhibition verapamil): 4 10^−4 mLg^−1s^−1; log PS ([5]; efflux inhibition verapamil): −3.44; obs–calc (log Po^in situ) ([6]; efflux inhibition mrp1(−/−)): 1.4; obs–calc (log Po^in situ) ([6]; efflux inhibition verapamil): 1.6 |
| CN/C(=N/CCSCc1nc[nH]c1C)NC#N [Cimetidine] | 0 |  |  |  |  |  |  |  |  |  | 0.0 | log Po^in situ (obs) ([8]; efflux inhibition bcrp(−/−)): −5.95; PS ([9]; efflux inhibition bcrp(−/−)): 1 10^−4 mLg^−1s^−1; log PS ([9]; efflux inhibition bcrp(−/−)): −4.08; obs–calc (log Po^in situ) ([6]; efflux inhibition bcrp(−/−)): −0.4; obs–calc (log Po^in situ) ([6]; no efflux inhibition): −0.4 and −0.2; log PABL [14]: −4.62; log Po [14]: −6.40; Pm^7.4 ([14]; pH 7.4): 0.4; pKa (physchem [13]): 6.13 |
